According to patent US6683107B2, “Furans, benzofurans, and thiophenes useful in the treatment of insulin resistance and hyperglycemia” (Wyeth, priority 1998, dated 2004):

What was measured:
[1] = biological target: T1, human recombinant PTP1B (hPTP1B) (Homo sapiens, UniProt P18031); assay: Inhibition of tri-phosphorylated insulin receptor dodecaphosphopeptide dephosphorylation by hPTP1B (malachite green phosphate detection); format: biochemical; settings: for IC50: recombinant PTP1B, insulin receptor 1142-1153 triphosphopeptide substrate, 37° C., 30 min, pH 7.4; for inhibition at 1 µM: compound at 1.0 μM, percent of phosphatase control
T1 construct: made in house
T1 sequence (P18031 1-435): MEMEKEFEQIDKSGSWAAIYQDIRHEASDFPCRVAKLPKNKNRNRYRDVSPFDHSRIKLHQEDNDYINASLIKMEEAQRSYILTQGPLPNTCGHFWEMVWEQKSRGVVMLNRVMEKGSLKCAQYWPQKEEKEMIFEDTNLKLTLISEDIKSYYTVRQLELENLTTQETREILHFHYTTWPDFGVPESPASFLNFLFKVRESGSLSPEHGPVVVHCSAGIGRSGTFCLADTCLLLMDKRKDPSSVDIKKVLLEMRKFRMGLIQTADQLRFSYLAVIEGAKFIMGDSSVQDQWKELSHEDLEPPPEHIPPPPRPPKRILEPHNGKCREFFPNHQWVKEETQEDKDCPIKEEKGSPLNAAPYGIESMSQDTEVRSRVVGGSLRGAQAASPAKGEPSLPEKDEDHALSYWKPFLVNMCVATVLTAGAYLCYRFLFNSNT

Row | Compound | IC50 [1] [nM] | melting point [°C] | inhibition at 1 µM [1] [%]
1 | Cc1oc(Cc2ccccc2Br)c(C(=O)c2ccc(OS(=O)(=O)c3ccc(C(=O)O)c(O)c3)c(C3CCCC3)c2)c1C [Example 21, 4-{4-[2-(2-Bromo-benzyl)4,5-dimethyl-furan-3-carbonyl]-2-cyclopentyl-phenoxysulfonyl}-2-hydroxy-benzoic acid] | 371 | 72 to 82 | –
2 | CC(=O)Oc1cc(S(=O)(=O)Oc2ccc(C(=O)c3c(Cc4ccccc4)oc(C)c3C)cc2C2CCCC2)ccc1C(=O)O [Example 22, 2-Acetoxy4-[4-(2-benzyl-4,5-dimethyl-furan-3-carbonyl)-2-cyclopentyl-phenoxysulfonyl]-benzoic acid] | 508 | 55 to 90 | –
3 | CC(=O)Oc1cc(S(=O)(=O)Oc2ccc(C(=O)c3c(Cc4ccccc4)sc(C)c3C)cc2C2CCCC2)ccc1C(=O)O [Example 23, 2-Acetoxy4-[4-(2-benzyl-4,5-dimethyl-thiophene-3-carbonyl)-2-cyclopentyl-phenoxysulfonyl]-benzoic acid] | 439 | 94 to 96 | –
4 | CC(=O)Oc1cc(S(=O)(=O)Oc2ccc(C(=O)c3c(Cc4ccc(Br)cc4)sc(C)c3C)cc2C2CCCC2)ccc1C(=O)O [Example 24, 2-Acetoxy-4-{4-[2-(4-Bromo-benzyl)-4,5-dimethyl-thiophene-3-carbonyl]-2-cyclopentyl-phenoxysulfonyl}-benzoic acid] | 254 | 113 to 114 | –
5 | CC(=O)Oc1cc(S(=O)(=O)Oc2ccc(C(=O)c3c(Cc4ccccc4Br)oc(C)c3C)cc2C2CCCC2)ccc1C(=O)O [Example 25, 2-Acetoxy-4-{4-[2-(2-Bromo-benzyl)-4,5-dimethyl-fuiran-3-carbonyl]-2-cyclopentyl-phenoxysulfonyl}-benzoic acid] | 241 | 79 | –
6 | CCCCc1oc2ccccc2c1CCc1ccc(OS(=O)(=O)c2ccc(C(=O)O)c(OC(C)=O)c2)cc1 [Example 26, 2-Acetoxy-4-{4-[2-(2-butyl-benzofuran-3-yl)-ethyl]-phenoxysulfonyl}-benzoic acid] | – | 54 to 57 | 51.4
7 | Cc1sc(Cc2ccc(Br)cc2)c(C(=O)c2ccc(OS(=O)(=O)c3cnn(C)c3)c(C3CCCC3)c2)c1C [Example 27, 1-Methyl-1H-pyrazole-4-sulfonic acid 4-[2-(4-bromo-benzyl)-4,5-dimethyl-thiophene-3-carbonyl]-2-cyclopentyl-phenyl ester] | – | 55 to 60 | 22.7
8 | CCCCc1oc2ccccc2c1Cc1ccc(OS(=O)(=O)c2ccc(C(=O)O)c(O)c2)cc1 [Example 28, 4-[4-(2-Butyl-benzofuran-3-ylmethyl)-phenoxysulfonyl]-2-hydroxy-benzoic acid] | 577 | 135 to 138 | –
